{
  "source": "paper PMC5843811",
  "about": "“^44Sc for labeling of DOTA- and NODAGA-functionalized peptides: preclinical in vitro and in vivo investigations” (EJNMMI Radiopharmacy and Chemistry, 2016)",
  "key": {"[1]": {"assay": "Biodistribution in AR42J tumor-bearing mice", "conditions": "female, CD-1 nude (athymic nude), mouse, iv, total radioactivity, i.v. ~5 MBq (~1 nmol), mean ± SD, n=3; for tissue to tissue ratio at 0.5 h / tissue uptake at 0.5 h: 30 min p.i.; for tissue to tissue ratio at 2 h / tissue uptake at 2 h: 2 h p.i.; for tissue to tissue ratio at 5 h / tissue uptake at 5 h: 5 h p.i.; for tissue uptake at 0.5 h / tissue uptake at 2 h / tissue uptake at 5 h: Biodistribution", "procedure": "Female athymic nude mice (CD-1 nude), age 5–6 weeks, were obtained from Charles River Laboratories, Sulzfeld, Germany. U87MG cells and AR42J-cells were suspended in PBS (5 × 10^6 cells in 100 μL) and subcutaneously inoculated on each shoulder. Two to three weeks later, when the tumor reached a size of about 300–500 mm^3, the mice were used for the in vivo studies.\nBiodistribution studies were performed with U87MG tumor and AR42J tumor-bearing mice 2 weeks after tumor cell inoculation. ^44Sc- and ^68Ga-labeled peptides (~5 MBq, ~1 nmol per mouse) were intravenously injected in a volume of 100–200 μL. Mice were sacrificed at 30 min, 2 h and 5 h after injection (p.i.) of the ^44Sc-labeled peptides. Mice which were injected with ^68Ga-labeled peptides were sacrificed at 30 min and 2 h p.i. Selected tissues and organs were collected, weighed, and counted for radioactivity using a γ-counter (Wallac Wizard 1480, Perkin Elmer). The results were listed as a percentage of the injected activity per gram of tissue mass (% IA/g), using counts of a defined volume of the original injection solution counted at the same time. The data were analyzed for significance using a two-way ANOVA test (Graph Pad Prism 6 software, version 6.05). A p-value of < 0.05 was considered statistically significant."}, "AR42J tumor-bearing mice": {"tested_on": "AR42J tumor-bearing mice", "assay": "PET/CT imaging of AR42J tumor-bearing mice", "conditions": "3 h after i.v. injection of ~10 MBq (~1 nmol; ^44Sc-NODAGA-NOC ~3 nmol), one or two mice", "procedure": "A bench-top preclinical PET scanner (G8, Sofie Biosciences, California, U.S.A. and Perkin Elmer, Massachusetts, U.S.A.) was employed for the PET scans of the tumor-bearing mice. The energy window was set to 150–650 keV. Mice were injected intravenously with ^44Sc- or ^68Ga-labeled peptides (~10 MBq, ~1 nmol per mouse) in a volume of 100–200 μL. The PET scans were performed 3 h and 5 h after injection of the ^44Sc-labeled peptides and 3 h after injection of the ^68Ga-labeled peptides, using G8 acquisition software (version 2.0.0.10). All static PET scans lasted for 20 min. During the acquisition the mice were anesthetized by inhalation of a mixture of isoflurane and oxygen. The images were reconstructed with maximum-likelihood expectation maximization (MLEM). Gauss post-reconstruction filtering was performed using VivoQuant post-processing software (version 2.10, inviCRO Imaging Services and Software, Boston, U.S.A.)."}, "[2]": {"conditions": "AR42J tumor / blood, Tumor-to-blood ratio"}, "[3]": {"conditions": "AR42J tumor / kidneys, Tumor-to-kidney ratio"}, "[4]": {"conditions": "AR42J tumor / liver, Tumor-to-liver ratio"}},
  "data": [
    {"smiles": "C[C@@H](O)[C@@H]1NC(=O)[C@H](CCCCN)NC(=O)[C@@H](Cc2c[nH]c3ccccc23)NC(=O)[C@H](Cc2cccc3ccccc23)NC(=O)[C@@H](NC(=O)[C@@H](Cc2ccccc2)NC(=O)CCC(C(=O)O)N2CCN(CC(=O)O)CCN(CC(=O)O)CC2)CSSC[C@@H](C(=O)N[C@H](CO)[C@@H](C)O)NC1=O", "note": "(some centres unmarked) [^44Sc-NODAGA-NOC, metal not drawn]", "values": [
      {"measurement": "tissue to tissue ratio at 0.5 h", "setting": "[1]; [2]", "result": "5.23 ± 0.22"},
      {"measurement": "tissue to tissue ratio at 2 h", "setting": "[1]; [2]", "result": "50.3 ± 16.8"},
      {"measurement": "tissue to tissue ratio at 5 h", "setting": "[1]; [2]", "result": "78.6 ± 6.95"},
      {"measurement": "tissue to tissue ratio at 0.5 h", "setting": "[1]; [3]", "result": "0.8 ± 0.1"},
      {"measurement": "tissue to tissue ratio at 2 h", "setting": "[1]; [3]", "result": "1.22 ± 0.34"},
      {"measurement": "tissue to tissue ratio at 5 h", "setting": "[1]; [3]", "result": "0.87 ± 0.24"},
      {"measurement": "tissue to tissue ratio at 0.5 h", "setting": "[1]; [4]", "result": "8.13 ± 0.72"},
      {"measurement": "tissue to tissue ratio at 5 h", "setting": "[1]; [4]", "result": "11.6 ± 1.51"},
      {"measurement": "tissue uptake at 0.5 h", "setting": "[1]; AR42J tumor", "result": "9.9 ± 0.66", "unit": "%ID/g"},
      {"measurement": "tissue uptake at 2 h", "setting": "[1]; AR42J tumor", "result": "10.2 ± 1.17", "unit": "%ID/g"},
      {"measurement": "tissue uptake at 5 h", "setting": "[1]; AR42J tumor", "result": "10.8 ± 0.37", "unit": "%ID/g"},
      {"measurement": "tissue uptake at 5 h", "setting": "[1]; adrenals", "result": "2.87 ± 0.95", "unit": "%ID/g"},
      {"measurement": "tissue uptake at 0.5 h", "setting": "[1]; blood", "result": "1.89 ± 0.08", "unit": "%ID/g"},
      {"measurement": "tissue uptake at 2 h", "setting": "[1]; blood", "result": "0.22 ± 0.06", "unit": "%ID/g"},
      {"measurement": "tissue uptake at 5 h", "setting": "[1]; blood", "result": "0.14 ± 0.01", "unit": "%ID/g"},
      {"measurement": "tissue uptake at 0.5 h", "setting": "[1]; bone", "result": "1.38 ± 0.17", "unit": "%ID/g"},
      {"measurement": "tissue uptake at 5 h", "setting": "[1]; bone", "result": "0.46 ± 0.06", "unit": "%ID/g"},
      {"measurement": "tissue uptake at 0.5 h", "setting": "[1]; brain", "result": "0.09 ± 0.01", "unit": "%ID/g"},
      {"measurement": "tissue uptake at 5 h", "setting": "[1]; brain", "result": "0.06 ± 0.01", "unit": "%ID/g"},
      {"measurement": "tissue uptake at 5 h", "setting": "[1]; heart", "result": "0.3 ± 0.04", "unit": "%ID/g"},
      {"measurement": "tissue uptake at 0.5 h", "setting": "[1]; intestines, 5 MBq per mouse", "result": "0.74 ± 0.1", "unit": "%ID/g"},
      {"measurement": "tissue uptake at 2 h", "setting": "[1]; intestines", "result": "0.29 ± 0.07", "unit": "%ID/g"},
      {"measurement": "tissue uptake at 5 h", "setting": "[1]; intestines", "result": "0.38 ± 0.06", "unit": "%ID/g"},
      {"measurement": "tissue uptake at 0.5 h", "setting": "[1]; kidneys", "result": "12.4 ± 1.41", "unit": "%ID/g"},
      {"measurement": "tissue uptake at 2 h", "setting": "[1]; kidneys", "result": "8.64 ± 1.62", "unit": "%ID/g"},
      {"measurement": "tissue uptake at 5 h", "setting": "[1]; kidneys", "result": "13 ± 2.98", "unit": "%ID/g"},
      {"measurement": "tissue uptake at 0.5 h", "setting": "[1]; liver", "result": "1.22 ± 0.11", "unit": "%ID/g"},
      {"measurement": "tissue uptake at 2 h", "setting": "[1]; liver", "result": "0.88 ± 0.15", "unit": "%ID/g"},
      {"measurement": "tissue uptake at 5 h", "setting": "[1]; liver", "result": "0.94 ± 0.12", "unit": "%ID/g"},
      {"measurement": "tissue uptake at 0.5 h", "setting": "[1]; lung", "result": "4.28 ± 0.03", "unit": "%ID/g"},
      {"measurement": "tissue uptake at 2 h", "setting": "[1]; lung", "result": "1.19 ± 0.28", "unit": "%ID/g"},
      {"measurement": "tissue uptake at 5 h", "setting": "[1]; lung", "result": "0.89 ± 0.14", "unit": "%ID/g"},
      {"measurement": "tissue uptake at 0.5 h", "setting": "[1]; muscle", "result": "0.66 ± 0.08", "unit": "%ID/g"},
      {"measurement": "tissue uptake at 5 h", "setting": "[1]; muscle", "result": "0.26 ± 0.07", "unit": "%ID/g"},
      {"measurement": "tissue uptake at 0.5 h", "setting": "[1]; pancreas, 5 MBq per mouse", "result": "1.6 ± 0.12", "unit": "%ID/g"},
      {"measurement": "tissue uptake at 2 h", "setting": "[1]; pancreas, 5 MBq per mouse", "result": "1.12 ± 0.07", "unit": "%ID/g"},
      {"measurement": "tissue uptake at 5 h", "setting": "[1]; pancreas, 5 MBq per mouse", "result": "1.35 ± 0.29", "unit": "%ID/g"},
      {"measurement": "tissue uptake at 0.5 h", "setting": "[1]; spleen", "result": "0.91 ± 0.2", "unit": "%ID/g"},
      {"measurement": "tissue uptake at 2 h", "setting": "[1]; spleen", "result": "0.38 ± 0.05", "unit": "%ID/g"},
      {"measurement": "tissue uptake at 5 h", "setting": "[1]; spleen", "result": "0.47 ± 0.05", "unit": "%ID/g"},
      {"measurement": "tissue uptake at 0.5 h", "setting": "[1]; stomach, 5 MBq per mouse", "result": "1.45 ± 0.28", "unit": "%ID/g"},
      {"measurement": "tissue uptake at 2 h", "setting": "[1]; stomach, 5 MBq per mouse", "result": "1.26 ± 0.22", "unit": "%ID/g"},
      {"measurement": "tissue uptake at 5 h", "setting": "[1]; stomach, 5 MBq per mouse", "result": "1.24 ± 0.09", "unit": "%ID/g"},
      {"measurement": "PET/CT distribution of radioactivity (in words)", "setting": "AR42J tumor-bearing mice", "result": "accumulated solely in tumors and kidneys"}
    ]}
  ]
}
